# According to patent US20010031790A1, “Treatment for complications of type 2 diabetes” (priority 1999, published 2001):
# “Also recorded” adds a separate entry of the source. Marks after values point to notes of the source that are not given here.
# Assay: Clinical comparison of patient groups: plasma MG, D-lactate and HbA1c in type 2 diabetic subjects receiving low or high daily dosages of metformin
# Type: in vivo, human
# Settings: for DL (D-lactate) / HbA1c / MG (plasma methylglyoxal level): diabetic subjects
# Excerpt: The differences noted above are shown in the following summary of clinical results utilizing patient groups of individuals free of diabetes, those having diabetes but receiving no metformin, those having diabetes and receiving one gram or less of metformin daily and those receiving more than a gram of metformin daily, respectively. In Table 1, the number of patients in each group is noted as are the levels of plasma MG, DL(D-lactate) and […] (HbA1c).
smiles,measurement,setting,value
"CN(C)C(=N)N=C(N)N [Metformin, N,N-dimethylimidocarbonimide diamide]",DL (D-lactate),"metformin >1 g/day, n=13",13.4 ± 4.6^c μmol/l
same,HbA1c,"metformin >1 g/day, n=13",8.3 ± 1.0%
same,MG (plasma methylglyoxal level),"metformin >1 g/day, n=13",158.4 ± 44.2^b nmol/l
same,DL (D-lactate),"metformin ≦1 g/day, n=17",13.8 ± 7.7^c μmol/l
same,HbA1c,"metformin ≦1 g/day, n=17",8.0 ± 1.1%
same,MG (plasma methylglyoxal level),"metformin ≦1 g/day, n=17",210.9 ± 51.0 nmol/L
same,"plasma level of MG, result in words","group taking high dosages of metformin, versus low dosage group and diabetics without metformin",significant lowering of plasma levels of MG; also recorded: significantly lower plasma level of MG
same,difference in glycemic control between high and low dosages,high versus low dosage groups of metformin,little difference in glycemic control
same,"levels of D-lactate, result in words","metformin administration versus diabetic control group receiving no metformin, no significant difference between high and low dosages",increased
